# Assays:
# MGC-803 cells = experiment: MTT cell growth inhibition assay, MGC-803; type: cell-based, human; settings: for IC50: MTT, 48 h incubation, MGC-803
# Description: (§1) All human cell lines were used in this study. MGC-803 late-stage differentiation gastric cancer cell, A549 lung cancer cell, HepG2 hepatoma cell, AGS gastric cancer cell, BEL-7402 liver cancer cell, HCT-116 colorectal cancer cell, HeLa cervical cancer cell, SGC-7901 early differentiation gastric cancer cell, L-02 normal liver cell, MCF-7 breast cancer cell, and MCF-10A normal breast cell were initially purchased from American Type Culture Collection (ATCC, Manassas, VA, USA). RPMI-1640 media, Dulbecco’s modified Eagle’s medium (DMEM), and foetal bovine serum (FBS) were provided from Gibco Company (Grand Island, NY, USA). The cells were maintained in DMEM or RPMI-1640, supplemented with 10% FBS, 100 IU/mL penicillin and […] (Grand Island, NY, USA), and at 37 °C in a humidified atmosphere containing 5% CO2.
# (§2) Cells were plated in 96-well plates at a density of 30–40% to ensure exponential growth throughout the experimental period, and then allowed to adhere for 1 day[21]. Next, the cells were treated with four serial concentrations (1, 10, 50, and 100 µM) of each compound. Taxol, CA-4, and CA-4P (phosphorylated form of CA-4) were used as positive controls. After 48 h incubation, MTT solution was added to each well at a final concentration of 2 mg/mL, and incubated for an additional 4 h. Next, the MTT solution was removed and 150 µL of dimethyl sulphoxide (DMSO)/well was added (Sigma-Aldrich, St Louis, MO, USA). The plates were shaken vigorously at RT to ensure complete solubilisation, and absorption at 492 nm was determined.
# (§3) According to standard protocol, preliminary in vitro anti-proliferative activities of the synthesised compounds were evaluated by MTT assay, using nine human cancer cell lines (MGC-803, A549, HepG2, AGS, BEL-7402, HCT116, HeLa, SGC-7901, and MCF-7) and two normal human cell lines (L-02 and MCF-10A), and compared with those of CA-4, CA-4P, and taxol.
# cyclin A = experiment: Western blotting, cyclin A; type: cell-based, human; settings: BEL-7402, 12 h, immunoblot, dose-dependent
# Protocol: (§4) BEL-7402 cells were harvested in logarithmic growth phase and the adherent and floating cells were collected after 12 h of drug treatment. The collected cells were resuspended in cold RIPA buffer (100 mM NaCl, 100 mM Tris (pH7.4), 10% Triton X-100, 1 mM PMSF, pH7.5) with 0.1 µM leupetin protease inhibitor as well as 1 µg/mL pepstatin and cracked on ice for 30 min. Then according to the reference to did immunoblotting assay.
# L-02 normal liver cell = experiment: MTT cell growth inhibition assay, L-02 (normal); type: cell-based, human; settings: Homo sapiens, 48 h incubation, L-02 normal cells
# Description: as §1, §2, §3
# cyclin B1 = experiment: Western blotting, cyclin B1; type: cell-based, human; settings: BEL-7402, 12 h, immunoblot
# Protocol: as §4
# BEL-7402 cells [1] = experiment: Analysis of apoptosis by flow cytometry (Annexin V-FITC/PI); type: cell-based, human; settings: BEL-7402, 0.1 µM, 12 h; vehicle 4.7%
# Protocol: Apoptosis was detected using an apoptosis detection kit. BEL-7402 cells were plated in 6-well plates (5.0 × 10^5 cells/well) and incubated at 37 °C overnight. Exponentially growing cells were then incubated with 6h at either 0.01 or 0.1 µM, or taxol at 0.1 µM. Vehicle group was treated with 0.1% DMSO. Following 12 h of incubation, cells were analysed for apoptosis as previously described, using a FACSCalibur flow cytometer with Cell Quest software (Becton-Dickinson, Franklin Lakes, NJ, USA).
# [2] = system: MCF-10A normal breast cell; experiment: MTT cell growth inhibition assay, MCF-10A (normal); type: cell-based, human; settings: Homo sapiens, 48 h incubation, MCF-10A normal cells
# Description: as §1, §2, §3
# BEL-7402 cells [3] = experiment: Trypan blue staining; type: cell-based; settings: 0.001 µM to 10 µM, data not shown
# Protocol: Trypan blue staining was used to further investigate the cytotoxicity of 6h.
# [4] = system: SGC-7901 early differentiation gastric cancer cell; experiment: MTT cell growth inhibition assay, SGC-7901; type: cell-based, human; settings: Homo sapiens, 48 h incubation
# Description: as §1, §2, §3
smiles,measurement,setting,value
"COc1cc(/C(C#N)=C/c2ccc(C)cc2)cc(OC)c1OC [Compound 6h, (Z)-3-(p-Tolyl)-2-(3,4,5-trimethoxyphenyl)acrylonitrile]",fold more active than taxol against MGC-803 cells,MGC-803 cells,6 fold
same,IC50,"MGC-803 cells; Homo sapiens, MGC-803, 48 h",0.01 to 7.21 µM
same,IC50,MGC-803 cells,< 0.01 µM
same,expression of cyclin A compared with the vehicle group,cyclin A,lower expression
same,IC50,L-02 normal liver cell,> 100 µM
same,expression of cyclin B1 compared with vehicle or 0.1 µM of taxol,cyclin B1,increased expression
same,total apoptotic cells (early + late apoptotic cells),BEL-7402 cells [1],10.2%
same,IC50,[2],9.45 ± 5.25 µM
same,percentages of dead cells (trypan blue),BEL-7402 cells [3],negligible
same,IC50,[4],> 100 µM

# — PMC6161602, “Synthesis and characterisation of (Z)-styrylbenzene derivatives as potential selective anticancer agents” (Journal of Enzyme Inhibition and Medicinal Chemistry, 2018)
